We go through 1 compound from ChEMBL document CHEMBL4837181 (Eur J Med Chem, 2020).

The structures appear in SMILES notation.

Series [1] in a line: Cmax in male cynomolgus monkey at 150 mg/kg, po BID measured on day 8. The conditions noted are these: in vivo. On the set-up: route oral, dose 150 mg/kg. It is filed as ADME, organism-based, Macaca fascicularis.
The nature of series [2]: Cmax in male cynomolgus monkey at 225 mg/kg, po measured on day 1. The format is ADME, organism-based, Macaca fascicularis. The conditions noted are these: in vivo. On the set-up: route oral, dose 225 mg/kg.
A short description of series [3]: Cmax in female cynomolgus monkey at 375 mg/kg, po BID measured on day 8. The following applies: in vivo. On the set-up: route oral, dose 375 mg/kg. It is filed as ADME, organism-based, Macaca fascicularis.
Series [4] in a line: Cmax in female cynomolgus monkey at 675 mg/kg, po measured on day 1. The format is ADME, organism-based, Macaca fascicularis. Set-up: route oral, dose 675 mg/kg. The conditions noted are these: in vivo.
Series [5] is described as follows: Cmax in male cynomolgus monkey at 675 mg/kg, po measured on day 1. The format is ADME, organism-based, Macaca fascicularis. Set-up: route oral, dose 675 mg/kg. The following applies: in vivo.
Series [6] in a line: Tmax in male cynomolgus monkey at 150 mg/kg, po BID measured on day 8. The format is ADME, organism-based, Macaca fascicularis. The conditions noted are these: in vivo.
Series [7] in a line: Tmax in male cynomolgus monkey at 225 mg/kg, po measured on day 1. The format is ADME, organism-based, Macaca fascicularis. The following applies: in vivo.
The nature of series [8]: Tmax in female cynomolgus monkey at 375 mg/kg, po BID measured on day 8. The following applies: in vivo. It is filed as ADME, organism-based, Macaca fascicularis.
Series [9] in a line: Tmax in female cynomolgus monkey at 675 mg/kg, po measured on day 1. The conditions noted are these: in vivo. It is filed as ADME, organism-based, Macaca fascicularis.
A short description of series [10]: Tmax in male cynomolgus monkey at 675 mg/kg, po measured on day 1. The conditions noted are these: in vivo. It is filed as ADME, organism-based, Macaca fascicularis.
A short description of series [11]: AUC (0 to 24 hrs) in male cynomolgus monkey at 150 mg/kg, po BID measured on day 8. The format is ADME, organism-based, Macaca fascicularis. On the set-up: time < 24 hr, route oral, dose 150 mg/kg. The conditions noted are these: in vivo.
A short description of series [12]: AUC (0 to 24 hrs) in male cynomolgus monkey at 225 mg/kg, po measured on day 1. The format is ADME, organism-based, Macaca fascicularis. On the set-up: time < 24 hr, route oral, dose 225 mg/kg. The following applies: in vivo, 24 h.
Series [13] is described as follows: AUC (0 to 24 hrs) in female cynomolgus monkey at 375 mg/kg, po BID measured on day 8. The format is ADME, organism-based, Macaca fascicularis. Set-up: time < 24 hr, route oral, dose 375 mg/kg. The conditions noted are these: in vivo.
The nature of series [14]: AUC (0 to 24 hrs) in female cynomolgus monkey at 675 mg/kg, po measured on day 1. The format is ADME, organism-based, Macaca fascicularis. On the set-up: time < 24 hr, route oral, dose 675 mg/kg. The conditions noted are these: in vivo.
Series [15] in a line: Half life in female cynomolgus monkey at 675 mg/kg, po measured on day 1. The format is ADME, organism-based, Macaca fascicularis. The conditions noted are these: in vivo.
The nature of series [16]: AUC (0 to 24 hrs) in male cynomolgus monkey at 675 mg/kg, po measured on day 1. The format is ADME, organism-based, Macaca fascicularis. On the set-up: time < 24 hr, route oral, dose 675 mg/kg. The conditions noted are these: in vivo.
The nature of series [17]: Half life in male cynomolgus monkey at 675 mg/kg, po measured on day 1. The format is ADME, organism-based, Macaca fascicularis. The following applies: in vivo.
The nature of series [18]: Drug accumulation in rat at 100 to 900 mg/kg, po BID. The format is ADME, organism-based. The following applies: in vivo, dose 100-900 mg/kg.
Series [19] can be described thus: Drug accumulation in monkey at 75 to 375 mg/kg, po BID. The following applies: rhesus monkey, in vivo, dose 75-375 mg/kg. The format is ADME, organism-based, Macaca mulatta.
Series [20] in a line: Protein binding in Beagle dog plasma. The following applies: read-out: PPB. The format is ADME, cell-free, Canis lupus familiaris.
The nature of series [21]: Protein binding in human plasma. The format is ADME, cell-free. The following applies: read-out: PPB.

In the case of `CC(C)C[C@H](N)C(=O)N[C@H](Cc1cn(C)c2ccccc12)C(=O)O`, the Cmax is 192 nM in [1]; 353 nM in [2]; 308 nM in series [3]; 1580 nM in [4]; 1760 nM in [5]. Also, the time of peak concentration (Tmax) stood at 1 h in series [6]; 2 h in series [7]; 2 h in series [8]; 1.5 h in series [9]; 1 h in series [10]. Also, the values for the AUC at 24 h in series [11] and in series [13] were 0.0806 µM·h and 0.703 µM·h, respectively. Further, the results for the AUC in series [12], in series [14] and in [16] were 0.858 µM·h, 3.61 µM·h and 2.88 µM·h, respectively. Further, the half-life in [15] was 8.2 h; in [17] it was 3.7 h. The Drug metabolism result in series [18] and in [19] was “Metabolite_Notdetected” each time. For the same compound, the fraction unbound in [20] and in series [21] was above 0.5 in each case.
